# Experimental data reported in article PMC7923269 (Journal of Personalized Medicine, 2021).
# Like-named read-outs stand apart in the source and are kept apart here.
# What was measured:
# [1] = system: CYP3A; assay: Oral midazolam pharmacokinetics (CYP3A phenotyping) in healthy volunteers at baseline, after inhibition and after induction; format: in vivo, human; details: MDZ 1 mg oral; for Cmax: human, plasma, po
# Procedure: Healthy volunteers were administered, as part of the Geneva cocktail, MDZ 1 mg for CYP3A phenotyping at baseline (control session). During the inhibition session, participants received MDZ 1 mg after fluvoxamine intake (50 mg, two doses 12 h and 2 h before MDZ administration) and voriconazole intake (400 mg, one dose 2 h before MDZ administration). MDZ 1 mg was also received after a pretreatment with the inducer rifampicin (600 mg, one tablet every evening for seven days until the evening before administration of MDZ) (induction session). Urine samples were collected over 8 h after MDZ administration at each session. Venous blood samples (3 mL) were collected before (time 0) as well as 0.5, 1, 2, 3, 4, 6, and 8 h after probe drug administration. Breakfast and lunch were served approximately 1 h and 4 h, respectively, after the blood sampling. The trial is registered at http://www.clinicaltrials.gov (NCT01731067).
# Analyses of MDZ and OH-MDZ in plasma were performed using a single reverse-phase high-performance liquid chromatography coupled with tandem mass spectrometry (LC-MS/MS) method as described in the study of Bosilkosvka et al..
# The pharmacokinetic parameters of MDZ were obtained by standard noncompartmental methods using WinNonlin version 6.2.1 (Pharsight, Mountain View, CA, USA).
# Inhibition ratios were calculated as follows:(1) Inhibition ratio = Metricafter inhibition/Metricbefore inhibition.
# Similarly, induction ratios were calculated as follows:(3) Induction ratio = Metricafter induction/Metricbefore induction.
# [2] = system: CYP3A; set-up: method as in PMID 19701237; details: after clarithromycin 250 mg twice daily for five days vs baseline; p = 0.04; cited from earlier work
# [3] = system: CYP3A; details: for Inhibition ratio of urinary 1β-OH-DCA excretion: after/before inhibition by fluvoxamine + voriconazole; for Urinary 1β-OH-DCA excretion: geometric mean (95% CI)
# [4] = induction session (rifampicin 600 mg, 7 days)
# [5] = inhibition session (fluvoxamine + voriconazole)
smiles,measurement,setting,value
"Cc1ncc2n1-c1ccc(Cl)cc1C(c1ccccc1F)=NC2 [MDZ, midazolam]",Oral MDZ CL,"[1]; baseline, geometric mean (95% CI)",143.0 (107.1–191.0) L/h
same,Oral MDZ CL,[1]; [4],3296 (2351–4622) L/h
same,Oral MDZ CL,[1]; [5],24.0 (19.7–29.3) L/h
same,Cmax,"[1]; 1 mg, baseline",3.1 ng/mL
same,Cmax,[1]; [4],0.15 ng/mL
same,Cmax,[1]; [5],11.7 ng/mL
C[C@]12CCC(=O)C=C1CC[C@@H]1[C@@H]2[C@@H](O)C[C@@]2(C)[C@H]1CC[C@]2(O)C(=O)CO [cortisol],Increase in area under the concentration-time curve of plasma endogenous cortisol,[2],19%
"C[C@H](CCC(=O)O)[C@H]1CC[C@H]2[C@@H]3CC[C@@H]4C[C@H](O)C[C@@H](O)[C@]4(C)[C@H]3C[C@H](O)[C@]12C [1β-OH-DCA, 1β-hydroxy-deoxycholic acid]",Inhibition ratio of urinary 1β-OH-DCA excretion,[3],0.62
same,Inhibition ratio of urinary 1β-OH-DCA excretion,[3]; listed as 1β-OH -DCA,0.62 (0.26–1.5)
same,Urinary 1β-OH-DCA excretion,[3]; baseline,15.5 (5.8–41.3) µg/8 h
same,Urinary 1β-OH-DCA excretion,[3]; [4],61.8 (30.9–123.3) µg/8 h
same,Urinary 1β-OH-DCA excretion,[3]; [5],9.6 (4.1–22.5) µg/8 h
